From US5840697A, “Peptide inhibitors of calmodulin” (Torrey Pines Institute for Molecular Studies, priority 1996, dated 1998)
Read-outs that look alike come from different tables or passages of the source. Square brackets hold non-standard residues; d marks the D form. Peptide text beside a SMILES is read from it.

What was measured:
[1] = tested on: normal rat kidney (NRK) cells; test: DNA synthesis ([3H]-thymidine incorporation) in cell culture; format: cell-based; conditions: added at 5 hr
Method: Following the methods described in Lopez-Girona et al., Cell Calcium, 18:30-40 (1995), which is incorporated herein by reference, the effect of calmodulin inhibitory peptides on DNA synthesis was investigated. Specifically, peptides were added to culture media and assessed for their ability to inhibit the progression of normal rat kidney (NRK) cells into the S phase of the cell cycle; the DNA synthesis phase into the cell growth cycle. Such inhibition has been shown for existing anti-calmodulin drugs such as W13.
NRK cells were made quiescent by growing them to confluence in Dulbecco's minimum essential medium supplemented with 5% fetal calf serum (FCS), and then kept for 3-4 days in the same medium but with only 0.5% FCS. To allow them to re-enter the cell cycle, quiescent cells were trypsinized and subcultured at a lower density in fresh medium supplemented with 5% FCS.
DNA synthesis was analyzed by the measurement of [^3 H]-thymidine into whole cell DNA. NRK cells (10^5 per 35 mm plate) were pulse labeled for 1 hr with [methyl-^3 H]-thymidine (5 Ci/mmol) at 4 μCi/ml in Dulbecco's minimum essential medium supplemented with 5% FCS. Precipitation and solubilization of DNA was carried out as described in Cripps-Wolfman et al., J. Biol. Chem., 264:19478-19486 (1989), which is incorporated herein by reference.
The NRK cells stimulated to proliferate by addition of 5% FCS enter synchronously into the cell cycle and start the S phase after 12 hr reaching a maximum between 18 to 20 hr. The peptides were added at 5 hr (time at which the cells have already reenter the G1 phase). […] Similar results were found between the (D)-amino acid peptides and their (L)-counterpart.

calmodulin = calmodulin (Homo sapiens, UniProt P0DP23); test: calcium-dependent phosphodiesterase assay (calmodulin activity); format: biochemical
In short: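 Calmodulin (5 units) stimulation of Ca2+-activated phosphodiesterase measured by coupling cAMP→5'-AMP to 5'-nucleotidase, with released Pi read at 660 nm after ammonium molybdate reaction.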

rat liver cells = test: in vivo rat model: DNA synthesis of rat liver cells after partial hepatectomy; conditions: intravenous injection 5 hours after partial hepatectomy, measured 24 hours post hepatectomy
Source text: The effect that calmodulin inhibitors have on DNA synthesis were also studied in vivo in a rat model. Rat liver cells are a useful in vivo system for studying synchronized cells and the cell cycle. By partial hepatectomy, the hepatocyte quiescent cells present in normal adult rat liver can be stimulated to enter the replicative cell cycle and the effect of inhibitors on the cycle analyzed. This example provides the effect of the subject calmodulin inhibitory peptides on the DNA synthesis of rat liver cells in partial hepatectomy stage following intra venal injection of the peptides.
Male Sprague-Dawley rats ([…]; 2 rats per peptide or control) were fasted overnight. Partial hepatectomies were carried out under Ketolar anesthesia (Parke-Davis; Ann Arbor, Mich.), following the procedure described by Higgins and Anderson in Arch. Pathol., 12:186-202 (1931), which is incorporated herein by reference. […] DNA synthesis was assessed by measuring the radioactivity incorporated into DNA following an intraperitoneal injection (0.5 mCi/g body weight) of [^3 H] thymidine 1 hr prior to killing the rat and at 23 hours post hepatectomy. […] The liver tissue was homogenized in 10% trifluoroacetic acid at 4° C. and the DNA extracted and its radioactivity measured following the procedure described by Burton, Biochem. J., 62:315-320 (1956), which is incorporated herein by reference. […]

- IC50 (calmodulin; Table I, assayed at 75, 50 and 12.5 μM, average of repeated assays, read-out: Average IC50): 5.4 µM
- IC50 (calmodulin; Table III, in the presence of calmodulin, read-out: IC50 (μM) for calmodulin): 7.1 µM
- SPECIFICITY (calmodulin; comparison of IC50 for phosphodiesterase with IC50 for calmodulin): 17
Compound: CC[C@@H](C)[C@@H](NC(=O)[C@@H](CCCNC(=N)N)NC(=O)[C@@H](Cc1c[nH]c2ccccc12)NC(=O)[C@@H](CC(C)C)NC(C)=O)C(=O)N[C@H](CC(C)C)C(=O)N[C@H](Cc1c[nH]c2ccccc12)C(N)=O [Ac-(D)Leu-(D)Trp-(D)Arg-(D)Ile-(D)Leu-(D)Trp-NH2] (Ac-[dL][dW][dR][dI][dL][dW]-NH2)
- % DNA SYNTHESIS ([1]; 7.5 μM): 59%
- % DNA SYNTHESIS ([1]; 15 μM): 25%
- % DNA SYNTHESIS (rat liver cells): 50%
